From patent US20140056964A1, “GRANZYME B INHIBITOR COMPOSITIONS, METHODS AND USES FOR PROMOTING WOUND HEALING” (THE UNIVERSITY OF BRITISH COLUMBIA, priority 2010, published 2014)
Entries after “also recorded” stand apart in the source; their conditions may differ.

Assays:
Granzyme B [1] = target: T1, Granzyme B (Homo sapiens, UniProt P10144); assay: continuous colorimetric Granzyme B inhibition assay with substrate Ac-IEPD-pNA; format: biochemical; settings: substrate Ac-IEPD-pNA 20 μM, 37° C., pNA release at 405 nm
T1 sequence (P10144 21-247): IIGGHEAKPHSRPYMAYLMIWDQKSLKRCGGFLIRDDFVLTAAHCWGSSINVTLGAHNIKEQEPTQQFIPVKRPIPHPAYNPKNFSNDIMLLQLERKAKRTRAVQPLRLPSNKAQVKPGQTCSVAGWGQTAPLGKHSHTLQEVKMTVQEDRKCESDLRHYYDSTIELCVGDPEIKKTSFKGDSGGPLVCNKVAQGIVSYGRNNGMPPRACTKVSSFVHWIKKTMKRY
Method: Small molecule libraries (ZINC—Irwin J J and Shoichet B K, 2005. J. Chem Inf Model 4591:177-182; NCI—Voigt, J. H. et al. J. Chem. Inf Comput. Sci. 2001, 41, 702-712) were screened in silico for candidate Granzyme B inhibitory compounds. Several candidate small molecule inhibitors were identified and subjected to an in vitro Granzyme B inhibition assay. More specifically, a continuous colormetric assay for Granzyme B activity was carried out with the substrate Ac-IEPD-pNA. Briefly, 8 ug/ml Granzyme B, 20 μM substrate, and increasing concentrations of the inhibitor of interest was incubated in a final reaction volume of 50 ul. The reaction buffer consisted of 50 mM HEPES pH 7.5, 10% sucrose, 0.1% CHAPS and 5 mM DTT and reactions were carried out at 37° C. pNA release and Granzyme B inhibition was monitored at 405 nm on a Tecan Safire microplate reader.
As detailed herein and as detailed in Tables A and B herein, candidate inhibitors, and IC50 concentration obtained from the inhibition assay are set out below.

Granzyme B [2] = target: T1, Granzyme B; assay: cleavage of endogenous HCASMC-derived ECM (fibronectin, decorin Western blot) by 100 nM Granzyme B +/- inhibitor; format: biochemical; settings: inhibitor at 150 μM
Method: More specifically, as it relates to FIG. 18, to synthesize endogenous ECM, human coronary artery smooth muscle cells were seeded in 6 well plates and incubated at confluency for 7 days in serum starvation media (SMGM+0.2% FBS). Cells were removed from the plates by incubation with 0.25M Ammonium Hydroxide for 20 min. This treatment removes cells while leaving the surrounding extracellular matrix intact. Subsequently, 100 nM Granzyme B and the inhibitor of interest were incubated on the endogenous ECM for 24 h. Supernatants from the plates (containing cleavage fragments) were run on an SDS-PAGE gel and Western blotted for fibronectin or decorin. DMSO solvent control was not included due to redundancy. Asterisk=full length protein; Arrow=cleavage fragments, star denotes full length. […] Cells were removed from the plates by incubation with 0.25M Ammonium Hydroxide for 20 min. This treatment removes cells while leaving the surrounding extracellular matrix intact. Subsequently, 100 nM Granzyme B and the inhibitor of interest were incubated on the endogenous ECM for 24 h. Supernatants from the plates (containing cleavage fragments) were run on to an SDS-PAGE gel and Western blotted for fibronectin or decorin. DMSO solvent control was not included due to redundancy. Asterisk=full length protein; Arrow=cleavage fragments, star denotes full length.

[3] = target: T2, purified human Granzyme B (Homo sapiens, UniProt P10144); assay: proteoglycan cleavage assay (recombinant decorin, biglycan, betaglycan incubated with Granzyme B +/- inhibitor, SDS-PAGE); format: biochemical; settings: for Granzyme B cleavage of decorin: 24 h, 30 ul, Coomassie Blue stain
T2 construct: purchased Axxora, San Diego, Calif
T2 sequence (P10144 21-247): as above
Method: For ECM cleavage assays, Granzyme B and/or the inhibitor 3,4-dichloroisocoumarin (DCI), were incubated for 4 and 24 hours at room temperature, with decorin, biglycan or soluble betaglycan and visualized by Ponceau staining. Cleavage fragments were subjected to Edman degradation for cleavage site identification.
Proteoglycan cleavage assays. The recombinant human PGs, decorin (0.5 μg, Abnova, Walnut, Calif.), biglycan and betaglycan (1.5-5 ug, R&D Systems, Minneapolis, Minn.) were incubated at room temperature for 24 h with 25-500 nM purified human Granzyme B (Axxora, San Diego, Calif.), in 50 mM Tris buffer, pH 7.4. For inhibitor studies, Granzyme B was incubated in the presence or absence of 200 μM of the serine protease inhibitor 3,4-dichloroisocoumarin (DCI; Santa Cruz Biotechnology Inc, Santa Cruz, Calif.) or inhibitor solvent control, dimethyl sulfoxide (DMSO; Sigma-Aldrich, St Louis, Mo.) for 4 h or 24 h. After incubation, proteins were denatured, separated on a 10% SDS-polyacrylamide gel and transferred to a nitrocellulose membrane. Ponceau stain (Fisher Scientific, Waltham, Mass.) was used to detect cleavage fragments.
Samples were run on a 10% gel, imaged with Ponceau stain and scanned.
In this Example, incubations were performed at RT for 24 h in a total reaction volume of 30 ul. Samples were run on a 10% gel and imaged by Coomassic Blue stain. With reference to FIG. 17, the asterisk=full length protein.
Samples were run on a 10% gel, imaged with Ponceau stain and scanned. […] DMSO vehicle control was not included due to redundancy. Asterisk=full length protein; Arrow=cleavage fragments. Obstruction in Granzyme B/Betaglycan lane affecting first 2 cleavage fragments.

[4] = tested on: human coronary artery smooth muscle cells (HCASMC); assay: Human coronary artery smooth muscle cell TGF-β bioavailability assay (SMAD-3 / Erk phosphorylation); format: cell-based; settings: supernatants of betaglycan release assay (Granzyme B +/- DCI) on cells for 16 h
Method: To determine if the TGF-β released by Granzyme B was active, supernatants from the above release assay were incubated on human coronary artery smooth muscle cells (HCASMC) and SMAD/Erk activation was examined by Western blotting. For bioavailability assays, HCASMCs (Clonetics/Lonza, Walkersville, Md.) at passage 3-5 were seeded in 6 well plates in smooth muscle cell growth media (SmGM, Clonetics) +5% fetal bovine serum (FBS, Invitrogen) and grown to confluence. At this time, cells were quiesced by serum removal for 24 h, after which time 150 μl of release assay supernatants (as described above) or a 10 ng TGF-β positive control were added to the cells for 16 h. Cell lysates were assessed by SDS-PAGE/Western blotting for phosphorylated-Erk 1/2 (p-Erk1/2; 1:1000, Cell Signaling Technology, Danvers, Mass.), total Erk 1/2 (t-Erk1/2; 1:1000, Cell Signaling Technology), phosphorylated-SMAD3 (p-SMAD3; 1:2000, Epitomics, Burlingame, Calif.), total SMAD3 (t-SMAD3; 1:500, BD Biosciences) and the loading controls β-actin (1:5000, Sigma-Aldrich) or β-tubulin (1:3000, Millipore, Billerica, Mass.). Secondary IRDye® 800 conjugated antibodies (1:3000, Rockland Inc) were utilized and imaged with the Odyssey Infrared Imaging System (LI-COR Biotechnology). […]

Granzyme B [5] = target: T1, Granzyme B; assay: TGF-β release assay from proteoglycan/TGF-β complexes (Western blot of supernatants); format: biochemical; settings: for release of TGF-β from betaglycan/TGF-β complexes by Granzyme B: 20 ug/ml betaglycan, 10 ng TGF-β, 24 h at RT
Method: Cytokine release was assessed in supernatants using Western blotting. TGF-β release assays were carried out using a method similar to that previously described for the MMPs (Imai et al. 1997). Briefly, decorin, biglycan and betaglycan (15 μg/mL) were coated onto 48 well tissue culture plastic plates and allowed to incubate overnight at 4° C. in PBS, pH 7.4. After blocking with 1% bovine serum albumin, 20 ng of active TGF-β1 per well (Peprotech Inc, Rocky Hill, N.J.) was added in DPBS containing calcium and magnesium (#14040, Invitrogen, Carlsbad, Calif.) for 5 h at RT. Granzyme B, with or without DCI, was then added to the wells. After 24 h, supernatants were removed, denatured, and run on a 15% SDS-PAGE gel. Once transferred to a nitrocellulose membrane and blocked with 10% skim milk, the membrane was probed using a rat anti-human TGF-β1 antibody (1:200, BD Biosciences, Franklin Lakes, N.J.) and IRDye® 800 conjugated affinity purified anti-Rat IgG (1:3000, Rockland Inc, Gilbertsville, Pa.). Bands were imaged using the Odyssey Infrared Imaging System (LI-COR Biotechnology, Lincoln, Nebr.). In this Example, 20 ug/ml betaglycan was coated onto 48 well plates and incubated with 10 ng of TGF-β. Excess TGF-β was washed off the plate and betaglycan/TGF-β complexes were incubated with Granzyme B+/− inhibitors for 24 h at RT. Supernatants (containing released TGF-β) were collected and Western blotted for TGF-β. There is little non-specific dissociation of TGF-β into supernatants in the absence of Granzyme B (2; see FIG. 16). TGF-β is released by Granzyme B after 24 h of incubation (4; see FIG. 16).

Granzyme B [6] = target: T1, Granzyme B; assay: fibronectin cleavage by Granzyme B +/- inhibitor; format: biochemical; settings: inhibitor at 3.12 nM
Method: As shown in FIGS. 21A and B herein, incubations as described herein were performed with fibronectin (FN) and Granzyme B, both in the absence of inhibitor Willoughby 20 and in the presence of inhibitor Willoughby 20. Compound Willoughby 20 inhibits Granzyme B cleavage of FN at 3.12 nM.

For COC(=O)CC/C(O)=C(/C(=O)CCC(=O)Nc1ccc(Cl)cc1Cl)C(=O)OC [ZINC05317216], the IC50 (Granzyme B [1]) was about 50 µM.
In the case of CCOc1ccccc1NC(=O)/C(O)=C(/C(=O)c1ccc2ccccc2c1)[C@@H]1OC(=O)c2ccccc21 [ZINC05398428], the IC50 (Granzyme B [1]) is reported as about 255 µM.
With CC(=O)c1ccc(NC(=O)/C(O)=C(\C(=O)/C=C\c2ccccc2)[C@@H]2OC(=O)c3ccccc32)cc1 [ZINC05723764] the “decorin cleavage by Granzyme B” value (Granzyme B [2]) was “effective”, the “Granzyme B cleavage of betaglycan” value ([3]; inhibitor at 100 μM, RT, 4 h) was “does not inhibit” and the IC50 (Granzyme B [1]) was about 25 µM.
Cc1ccc(NC(=O)/C(O)=C(/C(=O)c2ccc3ccccc3c2)[C@H]2OC(=O)c3ccccc32)c(C)c1 (stereo in doubt) [ZINC05316154] showed an IC50 (Granzyme B [1]) of about 195 µM.
In the case of O=C(Nc1ccc(Cl)cc1Cl)/C(O)=C\C(=O)[C@@H]1CCOC1=O (stereo in doubt) [ZINC05605947], the IC50 (Granzyme B [1]) is reported as about 320 µM.
For CC(=O)CCC(=O)CC(=O)CCC(=O)Nc1cc(Cl)ccc1Cl [ZINC05316859], the IC50 (Granzyme B [1]) was about 250 µM.
In the case of O=c1oc(Cl)c(Cl)c2ccccc12 [DCI, 3,4-dichloroisocoumarin], the “TGF-β signaling (SMAD-3 and Erk 1/2 phosphorylation) in HCASMC” value [4] is reported as “limited TGF-β signaling”, the “release of TGF-β from betaglycan/TGF-β complexes by Granzyme B” value (Granzyme B [5]) is reported as “partially inhibited” and the “release of TGF-β from decorin, biglycan and betaglycan by Granzyme B” value (Granzyme B [5]; 24 h incubation, Western blot of supernatants) is reported as “not released; also recorded: inhibited; also recorded: no release evident”. For the same compound, the “Granzyme B-mediated cleavage of decorin, biglycan and betaglycan” value ([3]; 200 μM DCI, 4 h and 24 h, room temperature, Ponceau stain) was “effectively inhibited”.
Work on O=C1CCC(=O)/C(=C(/O)CCC(=O)Nc2cccc(Cl)c2)C1 [ZINC05315460] yielded an IC50 (Granzyme B [1]) of about 100 µM.
In the case of Cc1ccc(NC(=O)/C(O)=C(/C(=O)c2ccc3ccccc3c2)[C@@H]2OC(=O)c3ccccc32)cc1C [ZINC05723503], the IC50 (Granzyme B [1]) is reported as about 270 µM.
With Cc1ccc(NC(=O)/C(O)=C(/C(=O)/C=C/c2ccccc2)C2OC(=O)c3ccccc32)c(C)c1 (stereo not drawn) [ZINC05723787] the “Granzyme B cleavage of betaglycan” value ([3]; inhibitor at 50 μM, RT, 4 h) was “partially inhibits”, the “Granzyme B cleavage of betaglycan” value ([3]; inhibitor at 100 μM, RT, 4 h) was “completely” and the IC50 (Granzyme B [1]) was about 40 µM.
With CC[C@H](C)[C@H](NC(=O)Cc1csc2ccccc12)C(=O)N[C@H]1CCc2cccc3c2N(C1=O)[C@H](C(=O)NCc1c[nH]nn1)C3 [Willoughby 20, Azepino[3,2,1-hi]indole-2-carboxamide, 5-[[(2S,3S)-2-[(2-benzo[b]thien-3-ylacetyl)amino]-3-methyl-1-oxopentyl]amino]-1,2,4,5,6,7-hexahydro-4-oxo-N-(1H-1,2,3-triazol-5-ylmethyl)-, (2S,5S)-] the “release of TGF-β from betaglycan/TGF-β complexes by Granzyme B” value (Granzyme B [5]) was “inhibited”, the “Granzyme B cleavage of decorin” value ([3]; RT) was “Inhibits” and the “Granzyme B cleavage of decorin” value ([3]; RT, listed as compound 20) was “prevented”. The “Granzyme B cleavage of betaglycan” value ([3]; room temperature, 24 hours, 30 μl, Ponceau stain) was “inhibits”, the “Granzyme B cleavage of fibronectin (FN)” value (Granzyme B [6]) was “inhibits” and the IC50 (Granzyme B [1]) was about 3.1 µM.
Compound CC(=O)c1ccccc1NC(=O)/C(O)=C(/C(=O)c1ccccc1-c1ccccc1)[C@@H]1OC(=O)c2ccccc21 [ZINC05723646] has an IC50 (Granzyme B [1]) of about 250 µM.
